We go through one substance from paper PMC10571957, “αV-Integrin-Dependent Inhibition of Glioblastoma Cell Migration, Invasion and Vasculogenic Mimicry by the uPAcyclin Decapeptide” (Cancers, 2023).

In one assay the test system is U251-MG cells. Briefly: Vasculogenic mimicry (tube formation on Geltrex), U251-MG. In kind it is cell-based, human. The note with it: 24 h. As to the method:
The tube formation assay was performed in 96-well plates pre-coated with 50 µL/well of Geltrex^TM (Thermofisher, Scientific, Waltham, MA, USA), and polymerized for 30 min at 37 °C. Briefly, 3 × 10^4 U87-MG, 1.5 × 10^4 U251, and 1 × 10^4 C6 cells/100µL/well were plated onto Geltrex^TM and monitored at 37 °C for the indicated times. The specific effectors were included at time 0. The formation of vascular-like structures by Geltrex^TM-plated U87-MG and U251-MG cells was monitored for 24 h, whereas C6 cells were tested for 16 h. The evaluation of the branching point number, defined as the intersection of at least 3 tubes [24], was performed using the Inverted Microscope DMI Leica 6000 for the U87-MG and U251-MG cells and the Inverted Microscope Axiovert 25 for the C6 cells. At the indicated times, the number of “branching points” was assessed in 4/5 random fields using the ImageJ 1.52a Software.
(§1) Figure 8 Vascular mimicry formation and VE-cadherin expression inhibited by uPAcyclin in U251-MG cells. […] (B) The quantitation of the branching point number is described in the legend to Figure 6B. […] The densitometric quantitation of VE-cadherin bands is shown (right panel) (* p-value < 0.05; *** p-value < 0.001).

Another assay concerns VE-cadherin. Briefly: VE-cadherin expression in matrix-recovered U251-MG cells (Western blot). The note with it: 1 µM uPAcyclin, VM-forming U251-MG, 24 h. The assay is classed as cell-based, human.
Description: Whole cells were lysed as described, and resolved by SDS-PAGE, followed by Western blotting with PVDF membranes (Millipore, Burlington, MA, USA). The filters were probed with the following antibodies: polyclonal anti-VE Cadherin (Bioss Antibodies, Woburn, MA, USA), polyclonal anti-αV (Millipore), polyclonal anti-GAPDH (Elabscience, Houston, TX, USA), and polyclonal anti-actin (Sigma-Aldrich, St. Louis, MO, USA). Then, goat anti-rabbit IgG-HRP (Sigma) or goat anti-mouse IgG-HRP (Santa Cruz Biotechnology, Dallas, TX, USA) were employed as secondary antibodies. […] Films were imaged using the CanoScan 4400F (Canon, Tokyo, Japan) at 300 dpi, with the Adobe Photoshop Creative Suite 2 or CS2, and bands were quantified with the ImageJ 1.52a software (NIH, Bethesda, MD, USA).
To analyze matrix-embedded U251-MG cells, cells undergoing VM for 24 h were extracted using a 2× mixture of Trypsin, Accutase, and Dispase (1:1:1), acting for 45 min at 37 °C. […] The supernatants were collected and the protein concentration was quantified using the Bradford assay (Biorad, Hercules, CA, USA).
as §1

A further assay has as its system U87-MG cells. In words: Wound healing assay, U87-MG. The assay is classed as cell-based, human. The settings on record: for residual space, % of the initial wound: 24 h (untreated 15%). The method, then: The wound healing assay or scratch test was performed as previously reported. Briefly, 6 × 10^3 U87-MG cells were seeded in multiwell-12 plates containing culture inserts for live cell analysis (Ibidi, Gmbh, Martinsried, Germany) and grown to confluence in DMEM/10% FBS for 24 h. After removing the inserts, the cells were pre-treated for 40 min at 37 °C with uPAcyclin or diluents at the indicated concentrations, and then incubated in DMEM/3% FBS for 24 h. The images were taken using the Inverted Microscope Leica DMI6000 DFC 402 (Leica Microsystems, Milan, Italy). A total of 10 × 10^4 C6 cells were grown to confluence in 12-well plates, in the presence of DMEM/10% FBS. Then, the cell monolayers were wounded with a yellow tip, pre-incubated with uPAcyclin (10 pM and 100 nM) or diluents, and incubated in DMEM/2.5% FBS for 16 h. The images were obtained using the Inverted Axiovert 25 Microscope, equipped with the Zen 3.3 Software. To quantitate cell migration, a rectangle covering the wound edges is drawn on the T0 image and is further applied to the single photograms of each sample. The average margin distance is measured at three points and the results are expressed as percentage wound width of the T0 distance, taken as 100%.
Figure 5 Wound healing assay of U87-MG and C6 cells, in the presence of uPAcyclin. (A) U87-MG cells were grown to confluence in multiwell-12 plates with inserts, pre-incubated with uPAcyclin (10 pM or 100 nM) or diluents for 40 min at 37 °C, and then exposed to 3% FBS, in the presence of uPAcyclin or diluents, as reported. Images were taken at time 0 (T0) and 24 h (T24) and representative images are shown (50× total magnification, scale bar: 250 µm). […] (C) For both U87-MG and C6, the wound width at time 0 is taken as 100% and the wound width at T24 or T16 is calculated as relative to that (* p-value < 0.05; ** p-value < 0.005; *** p-value < 0.001).

The subject of assay [1] is HT1080 fibrosarcoma cells. The note with it: cited from earlier work. From the text:
Thus, in the present work, we investigated the effects of the anti-migratory uPAcyclin decapeptide, binding to the αV integrin subunit. This cyclic decapeptide is derived from a non-catalytic region of the human urokinase (uPA) plasminogen activator. The growth factor domain (GFD, residues 1-49) and the connecting peptide region (CP, residues 132-158) confer to the full uPA a clearcut motogen activity. While the GFD binds to the urokinase receptor (uPAR), the CP region binds to the αV integrin subunit. […] The primary sequence of this cyclic peptide, derived from the connecting peptide region (CP) of the serin protease urokinase (uPA), is reported in Figure 1A. As assessed by a previous conformational analysis of uPAcyclin performed in water solution, about half of the peptide molecules ...

As to “Ac-K^1P[ESPPEELK^10]-NH2 (sidechain bridge or staple) [uPAcyclin]”, the entries for the “branching number per field decreased to” value with U251-MG cells (1 nM) and with U251-MG cells (100 nM) were 20% and 15%, respectively. Also, the VE-cadherin expression result in the assay on VE-cadherin is reported as “markedly reduced”. Also, the “residual space, % of the initial wound” value in the assay with U87-MG cells (10 pM) amounted to 30%; with U87-MG cells (100 nM), 60%. Besides, the “reduction of wound healing rate closure” value in the assay on U87-MG cells (abstract) stood at 50%. In assay [1] (mice injected with HT1080 fibrosarcoma cells, ref [29]), the lung metastases entry is reported as “prevent lung metastases”. Also, the metastatic lung spreading result in assay [1] (nude mice, ref [25]) is “markedly inhibits metastatic lung spreading in nude mice”.
